Measured values from US11958868B2, “Methods of using metal complexes to promote wound healing” (University of Macau, priority 2022, dated 2024).

What follows are compounds tested against VHL (Homo sapiens, UniProt P40337) (assay: Binding affinity to VHL compared with VH298). Conditions: VH298 vs complex 1a.
Chain of VHL (P40337 whole entry): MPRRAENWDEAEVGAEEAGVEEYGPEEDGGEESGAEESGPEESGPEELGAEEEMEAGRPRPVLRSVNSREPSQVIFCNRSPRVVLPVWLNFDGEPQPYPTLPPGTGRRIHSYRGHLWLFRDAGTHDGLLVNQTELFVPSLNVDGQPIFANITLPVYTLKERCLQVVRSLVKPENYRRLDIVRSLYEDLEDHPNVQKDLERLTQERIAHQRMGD
Chain of VHL (Q15370 whole entry partner): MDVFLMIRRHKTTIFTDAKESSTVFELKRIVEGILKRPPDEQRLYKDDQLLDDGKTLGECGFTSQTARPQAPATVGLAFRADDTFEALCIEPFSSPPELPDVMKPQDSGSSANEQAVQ
Chain of VHL (Q15369 whole entry partner): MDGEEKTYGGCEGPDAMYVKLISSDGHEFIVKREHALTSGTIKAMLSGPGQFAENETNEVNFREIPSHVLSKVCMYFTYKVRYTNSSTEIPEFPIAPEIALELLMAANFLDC
For `Cc1ncsc1-c1ccc(CNC(=O)[C@@H]2C[C@@H](O)CN2C(=O)[C@@H](NC(=O)C2(C#N)CC2)C(C)(C)C)cc1` [VH298, reference compound], the “Binding affinity to VHL, stronger than complex 1a” value was “ca. 100 fold”.

Each compound was assayed against T1, human recombinant VHL:ElonginB:ElonginC (VBC) complex (Homo sapiens, UniProt P40337) (assay: Fluorescence-based protein thermal shift assay (FTS) of VBC). Conditions: 100 μM.
T1 construct: made in house
T1 sequence (P40337 whole entry): as the sequence (P40337 whole entry) above
T1 sequence (Q15370 whole entry partner): as the sequence (Q15370 whole entry partner) above
T1 sequence (Q15369 whole entry partner): as the sequence (Q15369 whole entry partner) above
Type: binding
Protocol: HEK293 cells were treated with vehicle DMSO (1% for 2 h), 1a (0.3, 1, 3, 6 and 9 μM for 2 h), VH298 (100 μM for 2 h), MG132 (20 μM for 3 h), or FG-4592 (100 μM for 2 h) before lysis. Cell lysates were collected and incubated with VHL antibody overnight at 4° C. The proteins were immunoprecipitated using agarose beads. The levels of hydroxy-HIF-1α co-precipitated with VHL were detected using a hydroxy-HIF-1α antibody, and then visualized using ECL Western Blotting Detection Reagent (GE Healthcare). (B) Cellular thermal shift assays to monitor cellular target engagement of VHL and HIF-1α. HEK293 cell lysates were treated with 1a (3 μM) at room temperature for 30 min and then heated at different temperature ranging from 48° C. to 68° C. for 5 min. The protein samples were collected and detected by Western blotting using either VHL or PHD2 antibodies. (C) Fluorescence-based protein thermal shift assay of VBC in the presence or absence of VH298 (100 μM) and complex 1a (100 μM). […] Data are expressed as means±SD (n=3 independent experiments for figures a and b, samples for figures c and e), P values were calculated using a two-sided t-test. *P<0.05, **P<0.01 vs. DMSO group.
After incubating HEK293 cell lysates with complex 1a followed by heating to set temperatures, VHL and PHD2 levels in the soluble fraction were quantitated by Western blotting.
In the case of `Cc1ncsc1-c1ccc(CNC(=O)[C@@H]2C[C@@H](O)CN2C(=O)[C@@H](NC(=O)C2(C#N)CC2)C(C)(C)C)cc1` [VH298, reference compound], the “Shift of the melting curve of purified VBC (FTS)” value is reported as “ca. 5.0 °C”.

Each compound was assayed on HIF-1α activation of the HRE-driven reporter (assay: Dual luciferase reporter assay (HRE-driven luciferase activity)). Conditions: HEK293 cells.
Type: cell-based, Human
Protocol: A library of cyclometalated Ir(III)/Rh(III) metal complexes 1-14 (as racemates) with diverse structures were selected for initial screening, in order to identify favorable substructures for the design of the next round of complexes (FIG. 1a). In cells, HIF-1α moves into the nucleus and binds to the hypoxia-response element (HRE) in the promoters of transactivated genes. In this study, the dual luciferase reporter assay (DLR) was performed to monitor the variations of HRE-driven luciferase activity induced by the complexes (FIG. 1f). Human embryonic kidney HEK293 cells were treated with complexes (10 μM) for 8 h, and the HRE-driven luciferase activity of the cell lysates was determined. Complexes that inhibit the interaction between VHL and HIF-1α would be expected to increase the level of HRE-driven luciferase activity in the cell lysates.
HEK293 cells were seeded in six well plates 24 h before transfection. HRE-luciferase plasmid (4 μg) and pRL-TK plasmid (4 μg) and TurboFect reagent (6 μL) were mixed together in serum-free DMEM medium and the resulting solution was incubated for 20 min at room temperature. The mixture was the added dropwise to the HEK293 cells in the wells. The cells were incubated for 32 h at 37° C. in a CO2 incubator before use.
The inhibition of HIF-1α activity was assayed by a reporter assay using a dual luciferase reporter assay system (Promega, Madison, WI, USA). Transiently transfected cells were treated with complexes or P1 for 8 h before measurement. Luciferase activity was integrated over a 10 second period and measured using a spectrophotometer (Spectra-max M5, Molecular Devices, USA). The results were standardization with the activity of Renilla luciferase. All data are expressed as means±SD.
With `Brc1ccc(-c2ccccn2)cc1` [brpy, 2-(4-bromophenyl)pyridine] the “Effect of isolated ligands on HRE-driven luciferase activity” value was “neither brpy nor dmeophen had any significant effect”. For `COc1ccnc2c1ccc1c(OC)ccnc12` [dmeophen, 4,7-dimethoxy-1,10-phenanthroline], the “Effect of isolated ligands on HRE-driven luciferase activity” value was “neither brpy nor dmeophen had any significant effect”.

Same assay, conditions: HEK293 cells, 8 h
`COc1cc[n+]2c3c1ccc1c(OC)cc[n+](c13)[Rh-3]213([c]2cc(Br)ccc2-c2cccc[n+]21)[c]1cc(Br)ccc1-c1cccc[n+]13.F[P-](F)(F)(F)(F)F` [compound 1] was tested, and the “HRE-driven luciferase activity compared to positive control P1 (and parent complex 1)” value was “slightly higher activity compared to the positive control compound, P1”.

Same assay, conditions: HEK293 cells, 8 h; complexes 1a-1n; ranking and comparison in words
`COc1cc[n+]2c3c1ccc1c(OC)cc[n+](c13)[Rh-3]213([c]2ccccc2-c2cccc[n+]21)[c]1ccccc1-c1cccc[n+]13.F[P-](F)(F)(F)(F)F` [1b] was tested, and the “HRE-driven luciferase activity, second round of screening” value was “substantially more active than the Rh(III) congener 1b”. For `COc1cc[n+]2c3c1ccc1c(OC)cc[n+](c13)[Ir-3]213([c]2cc(Br)ccc2-c2cccc[n+]21)[c]1cc(Br)ccc1-c1cccc[n+]13.F[P-](F)(F)(F)(F)F` [1c], the “HRE-driven luciferase activity, second round of screening” value was “drastically reduced activity”. With `COc1cc[n+]2c3c1ccc1c(OC)cc[n+](c13)[Ir-3]213([c]2ccccc2-c2c(C)ccc[n+]21)[c]1ccccc1-c1c(C)ccc[n+]13.F[P-](F)(F)(F)(F)F` [1e] the “HRE-driven luciferase activity, second round of screening” value was “substantially weakens the activity of the complex”. In the case of `COc1cc[n+]2c3c1ccc1c(OC)cc[n+](c13)[Ir-3]213([c]2cc(C)ccc2-c2cccc[n+]21)[c]1cc(C)ccc1-c1cccc[n+]13.F[P-](F)(F)(F)(F)F` [1g], the “HRE-driven luciferase activity, second round of screening” value is reported as “second-most potent compound”. With `COc1cc[n+]2c(c1)-c1cc(OC)cc[n+]1[Ir-3]213([c]2cc(Br)ccc2-c2cccc[n+]21)[c]1cc(Br)ccc1-c1cccc[n+]13.F[P-](F)(F)(F)(F)F` [1h] the “HRE-driven luciferase activity, second round of screening” value was “led to a decrease in activity”. For `Brc1ccc2[c](c1)[Rh-3]13([c]4cc(Br)ccc4-c4cccc[n+]41)([n+]1ccccc1-2)[n+]1cccc2ccc4ccc[n+]3c4c21.F[P-](F)(F)(F)(F)F` [1i], the “HRE-driven luciferase activity, second round of screening” value was “drastically reduced activity”. For `Brc1ccc2[c](c1)[Ir-3]13([c]4cc(Br)ccc4-c4cccc[n+]41)([n+]1ccccc1-2)[n+]1cccc2ccc4ccc[n+]3c4c21.F[P-](F)(F)(F)(F)F` [1j], the “HRE-driven luciferase activity, second round of screening” value was “drastically reduced activity”. `Brc1ccc2[c](c1)[Rh-3]13([c]4cc(Br)ccc4-c4cccc[n+]41)([n+]1ccccc1-2)[n+]1ccc(Br)c2ccc4c(Br)cc[n+]3c4c21.F[P-](F)(F)(F)(F)F` [1k] was tested, and the “HRE-driven luciferase activity, second round of screening” value was “drastically reduced activity”. With `Brc1ccc2[c](c1)[Ir-3]13([c]4cc(Br)ccc4-c4cccc[n+]41)([n+]1ccccc1-2)[n+]1ccc(Br)c2ccc4c(Br)cc[n+]3c4c21.F[P-](F)(F)(F)(F)F` [1l] the “HRE-driven luciferase activity, second round of screening” value was “drastically reduced activity”. With `Brc1ccc2[c](c1)[Rh-3]13([c]4cc(Br)ccc4-c4cccc[n+]41)([n+]1ccccc1-2)[n+]1ccc(-c2ccccc2)c2ccc4c(-c5ccccc5)cc[n+]3c4c21.F[P-](F)(F)(F)(F)F` [1m] the “HRE-driven luciferase activity, second round of screening” value was “drastically reduced activity”. `Brc1ccc2[c](c1)[Ir-3]13([c]4cc(Br)ccc4-c4cccc[n+]41)([n+]1ccccc1-2)[n+]1ccc(-c2ccccc2)c2ccc4c(-c5ccccc5)cc[n+]3c4c21.F[P-](F)(F)(F)(F)F` [1n] was tested, and the “HRE-driven luciferase activity, second round of screening” value was “drastically reduced activity”.

Same assay, conditions: HEK293 cells, complexes 10 μM, 8 h; complexes 1-14; ranking in words
`COc1cc[n+]2c3c1ccc1c(OC)cc[n+](c13)[Rh-3]213([c]2cc(Br)ccc2-c2cccc[n+]21)[c]1cc(Br)ccc1-c1cccc[n+]13.F[P-](F)(F)(F)(F)F` [compound 1] was tested, and the “HRE-driven luciferase activity (HIF-1α transcriptional activity), first round of screening” value was “highest activation of HIF-1α transcriptional activity”. In the case of `CCc1ccc2[c](c1)[Rh-3]13([c]4cc(CC)ccc4-c4cccc[n+]41)([n+]1ccccc1-2)[n+]1ccc(-c2ccccc2)c2ccc4c(-c5ccccc5)cc[n+]3c4c21.F[P-](F)(F)(F)(F)F` [compound 5], the “HRE-driven luciferase activity (HIF-1α transcriptional activity), first round of screening” value is reported as “next most potent candidate”. In the case of `CCc1ccc2[c](c1)[Rh-3]13([c]4cc(CC)ccc4-c4ccc5ccccc5[n+]41)([n+]1ccc(OC)cc1-c1cc(OC)cc[n+]13)[n+]1c-2ccc2ccccc21.F[P-](F)(F)(F)(F)F` [compound 6], the “HRE-driven luciferase activity (HIF-1α transcriptional activity), first round of screening” value is reported as “low activity”. `COC(=O)c1cc[n+]2c(c1)-c1cc(C(=O)OC)cc[n+]1[Rh-3]213([c]2ccccc2-c2ccc4ccccc4[n+]21)[c]1ccccc1-c1ccc2ccccc2[n+]13.F[P-](F)(F)(F)(F)F` [compound 7] was tested, and the “HRE-driven luciferase activity (HIF-1α transcriptional activity), first round of screening” value was “low activity”. In the case of `F[P-](F)(F)(F)(F)F.O=[N+]([O-])c1cc2ccc[n+]3c2c2c1ccc[n+]2[Ir-3]312([c]3cc(F)cc(F)c3-c3cccc[n+]31)[c]1cc(F)cc(F)c1-c1cccc[n+]12` [compound 9], the “HRE-driven luciferase activity (HIF-1α transcriptional activity), first round of screening” value is reported as “low activity”.

What follows are compounds tested on HIF-1α levels in A498 (VHL-null) cells (assay: HIF-1α accumulation in VHL-null A498 cells). Conditions: 1a 3 μM, VH298 100 μM, 2 h.
Type: cell-based
Protocol: FIG. 3 depicts the effect of complex 1a on HIF-1α target gene products in cellulo. (A) Effect of complex 1a on specific proteins (GLUT1, VEGF, and EPO) mediated by HIF-1α in HEK293 cells. HEK293 cells were treated with 1a for 2 h. Cell lysis were collected and analyzed by the Western blotting. (B) Complex 1a has no effect on HIF-1α accumulation in a VHL null cancer cell line. A498 (VHL-null), or HEK293 cells were treated with 1% DMSO, 1a (3 μM), VH298 (100 μM), and FG-4592 (100 μM) for 2 h before lysis. (C) Effect of complex 1a on EPO, GLUT1, and VEGF levels in HEK293 cells with or without HIF-1α knockdown. Left: The expression levels of EPO, GLUT1, and VEGF in HEK293 cells with or without knockdown HIF-1α in the presence or absence of 1a. Right: Densitometry analysis of EPO, GLUT1, and VEGF levels on the Western blot. HIF-1α siRNA [sense, 5′-[…]-3′ (SEQ ID NO:1), antisense, 5′-[…]-3′ (SEQ ID NO:2)]. Negative control (NC) siRNA [sense, 5′-[…]-3′ (SEQ ID NO:3), antisense, 5′-[…]-3′ (SEQ ID NO:4)]. Data are expressed as means±SD (n=3 independent experiments), P values were calculated using a two-sided t-test. #P<0.05, P<0.01 HIF-1α siRNA vs. NC siRNA, *P<0.05, **P<0.01 1a vs. vehicle/DMSO group, respectively. […]
For `Cc1ncsc1-c1ccc(CNC(=O)[C@@H]2C[C@@H](O)CN2C(=O)[C@@H](NC(=O)C2(C#N)CC2)C(C)(C)C)cc1` [VH298, reference compound], the “HIF-1α levels in A498 cells” value was “no increase in HIF-1α levels”.
